Assay results: ChEMBL document CHEMBL1152512, “The search for potent, small molecule NNRTIs: A review” (Bioorg Med Chem, 2009)
Values belong to the compound of their own block, whether it stands above or below them.

Experiments:
[1] = Selectivity index, ratio of human MT4 cytotoxicity to inhibition of HIV1 cytopathicity; assay type: toxicity; conditions: MT4 cells, read-out: Selectivity Index
[2] = test system: Human immunodeficiency virus 1; experiment: Antiviral activity against Human immunodeficiency virus 1 infected in human MT4 cells; assay type: functional, organism-based; conditions: Human immunodeficiency virus 1, MT4
[3] = test system: Human immunodeficiency virus 1; experiment: Antiviral activity against Human immunodeficiency virus 1 3B; assay type: functional, organism-based
[4] = test system: Human immunodeficiency virus; experiment: Inhibition of wild-type HIV reverse transcriptase
[5] = test system: Human immunodeficiency virus type 1 reverse transcriptase (Human immunodeficiency virus 1), Q72547 [K103N]; experiment: Inhibition of HIV reverse transcriptase K103N mutant
[6] = target: T1, Human immunodeficiency virus type 1 reverse transcriptase (Human immunodeficiency virus 1, UniProt Q72547); experiment: Inhibition of wild-type HIV1 reverse transcriptase
[7] = target: Human immunodeficiency virus type 1 reverse transcriptase (Human immunodeficiency virus 1, UniProt Q72547, K103N); experiment: Inhibition of HIV1 reverse transcriptase K103N mutant
[8] = target: Human immunodeficiency virus type 1 reverse transcriptase (Human immunodeficiency virus 1, UniProt Q72547, Y181C); experiment: Inhibition of HIV1 reverse transcriptase Y181C mutant
[9] = target: T1, Human immunodeficiency virus type 1 reverse transcriptase; experiment: Inhibition of HIV1 reverse transcriptase

Compound: COc1ccccc1NC(C(N)=O)c1c(Cl)cccc1Cl (stereo not given)
selectivity ratio [1]: 10000
EC50 [2]: 610 nM

Compound: CCC1(c2cccc(OC)c2)Oc2ccccc2-n2cccc2C1=O (stereo not given)
INH [4]: 0.05 µM
INH [5]: 0.022 µM

Compound: Cc1cc(S(N)(=O)=O)ccc1NC(=O)COc1ccc(Cl)cc1C(=O)c1cc(F)cc(C(F)(F)F)c1
IC50 [6]: < 2 nM
IC50 [7]: < 10 nM
IC50 [8]: < 10 nM

Compound: CCN(CC)CCOc1ccc(NC(=O)COc2ccccc2C(=O)c2ccc(OC)cc2)cc1
IC50 [9]: 21000 nM

More lines, main results first:

EC50 [2]: 13 nM
Compound: CC(=O)c1ccc(C)cc1NC(C(N)=O)c1c(Cl)cccc1Cl (stereo not given) [LOVIRIDE]
selectivity ratio [1]: 10000

EC50 [2]: 4.3 nM
Compound: CC(C)=CCN1Cc2c(Cl)ccc3[nH]c(=S)n(c23)C[C@@H]1C [TIVIRAPINE]

EC50 [3]: 15 nM
Compound: CC1=C(C(=O)Nc2ccc(Cl)c(C(=O)OC(C)C)c2)SCCO1

EC50 [3]: 15 nM
Compound: CC(C)=CCOc1cc(NC(=S)c2ccoc2C)ccc1Cl [UC 781]

EC50 [2]: 62000 nM
Compound: C=CCN1Cc2cccc3[nH]c(=O)n(c23)CC1C (stereo not given)

EC50 [3]: 15 nM
Compound: CC(C)=CCOc1cc(NC(=S)c2ccsc2C)ccc1Cl
